4 compounds from ChEMBL document CHEMBL5120885, “Neopetrosins A-D and Haliclorensin D, Indole-C-Mannopyranosides and a Diamine Alkaloid Isolated from the South China Sea Marine Sponge Neopetrosia chaliniformis” (J Nat Prod, 2022) can be followed below.

Activity calls are given as the source filed them. The calls are words filed in the database; no cut-off is given here.

Assay type in all cases: functional, organism-based
For assay [1], the species on record is Danio rerio. Nature of the assay: Hepatoprotective activity in ethanol induced liver injury in transgenic zebrafish T3 (L- FABP:EGFP) model assessed as change in liver size at 20 uM incubated for 72 hrs by fluorescence microscopic analysis.
The species named for assay [2] is Danio rerio. Nature of the assay: Hepatoprotective activity in isoniazid induced liver injury in transgenic zebrafish T3 (L- FABP:EGFP) model assessed as change in liver size at 20 uM incubated for 72 hrs by fluorescence microscopic analysis.
Assay [3] is filed under the species Danio rerio. Nature of the assay: Hepatoprotective activity in isoniazid induced liver injury in transgenic zebrafish T3 (L- FABP:EGFP) model assessed as change in liver size at 50 uM incubated for 72 hrs by fluorescence microscopic analysis.
For assay [4], the species on record is Danio rerio. The assay can be described thus: Hepatoprotective activity in ethanol induced liver injury in transgenic zebrafish T3 (L- FABP:EGFP) model assessed as change in liver size at 50 uM incubated for 72 hrs by fluorescence microscopic analysis.

With `NCC(=O)c1c([C@H]2O[C@H](CO)[C@@H](O)[C@H](O)[C@@H]2O)[nH]c2ccccc12`, the result in the assay listed under Danio rerio [1] and in the assay filed under Danio rerio [2] was Active.

For `C[S+](CC[C@H](N)C(=O)[O-])C[C@H]1O[C@@H](n2cnc3c(N)ncnc32)[C@H](O)[C@@H]1O` (stereo partly drawn), the result in the assay listed under Danio rerio [3] and in the assay filed under Danio rerio [4] was Active.

On to `C[C@@H]1NC(=O)[C@H](Cc2c([C@H]3O[C@H](CO)[C@@H](O)[C@H](O)[C@@H]3O)[nH]c3ccccc23)NC1=O`, for which the outcome in the assay listed under Danio rerio [1] and in the assay filed under Danio rerio [2] was Active.

`O=C1O[C@H]2[C@@H](O)[C@H](O)[C@@H](CO)O[C@@H]2c2[nH]c3ccccc3c21`: the result in the assay listed under Danio rerio [1] and in the assay filed under Danio rerio [2] was Active.
